From patent US5187166A, “Azabicyclo derivatives and their use as antiemetics” (Nisshin Flour Milling Co., Ltd., priority 1990, dated 1993)

System: 5-HT3 receptors
Test: antagonism of the von Bezold-Jarisch reflex (bradycardia) induced by 5-HT in the anaesthetised rat
Assay type: in vivo
Settings: i.v., hydrochloride salt, 5 min before 5-HT 30 μg/kg, urethane-anaesthetised rats
Procedure: Temporary bradycardia is induced by administration of 5-HT (serotonin) to anaesthetised rats via jugular vein (von Bezold Jarisch Reflex) (A. S. Paintal, Physiol. Rev., 53, 159-210 (1973)).
The compounds of the present invention were evaluated for antagonism of the von Bezold-Jarisch reflex induced by 5-HT in the anaesthetised rat according to the following method.
Rats were anaesthetised with urethane (1 g/kg, intraperitoneally) and blood pressure and heart rate recorded from left femoral artery. Percent inhibition was calculated from bradycardia induced by 5-HT (30 μg/kg) given 5 minutes following intrajugular administration of a compound of the invention, taking the bradycardia induced by the intrajugular administration of 5-HT. The compounds of the present invention were tested in the form of their hydrochloride salts.

| SMILES | Percent Inhibition (0.1 μg/kg) [%] | Percent Inhibition (1.0 μg/kg) [%] | Percent Inhibition (10 μg/kg) [%] |
| --- | --- | --- | --- |
| CN1[C@@H]2CSC[C@H]1C[C@@H](OC(=O)c1c[nH]c3ccccc13)C2 [Example 1, (Endo-9-methyl-3-thia-9-azabicyclo[3.3.1]non-7-yl) 1H-indole-3-carboxylate] | 51 | 85 | – |
| CN1C[C@H]2C[C@@H](NC(=O)c3nn(C)c4ccccc34)C[C@@H](C1)N2C [Example 12, Endo-3,9-dimethyl-3,9-diazabicyclo[3.3.1]non-7-yl 1-methylindazole-3-carboxamide] | 25 | 71 | – |
| CN1C[C@H]2C[C@@H](NC(=O)c3c[nH]c4ccccc34)C[C@@H](C1)N2C [Example 11, Endo-3,9-dimethyl-3,9-diazabicyclo[3.3.1]non-7-yl 1H-indole-3-carboxamide] | – | 39 | 79 |
| CN1C[C@H]2C[C@@H](OC(=O)c3c[nH]c4ccccc34)C[C@@H](C1)N2C [Example 9, (Endo-3,9-dimethyl-3,9-diazabicyclo[3.3.1]non-7-yl) 1H-indole-3-carboxylate] | 28 | 58 | 91 |
| CCCCCCCCn1nc(C(=O)N[C@@H]2C[C@@H]3CN(C)C[C@H](C2)N3C)c2ccccc21 [Example 18, Endo-3,9-dimethyl-3,9-diazabicyclo[3.3.1]non-7-yl 1-(n-octyl)indazole-3-carboxamide] | – | 15 | – |
| CN1[C@@H]2COC[C@H]1C[C@@H](OC(=O)c1c[nH]c3ccccc13)C2 [Example 2, (Endo-9-methyl-3-oxa-9-azabicyclo[3.3.1]non-7-yl) 1H-indole-3-carboxylate] | 54 | 93 | – |
| CC(C)n1nc(C(=O)N[C@@H]2C[C@@H]3CN(C)C[C@H](C2)N3C)c2ccccc21 [Example 16, Endo-3,9-dimethyl-3,9-diazabicyclo[3.3.1]non-7-yl 1-(2-propyl)indazole-3-carboxamide] | 59 | – | – |
| CCn1nc(C(=O)N[C@@H]2C[C@@H]3CN(C)C[C@H](C2)N3C)c2ccccc21 [Example 15, Endo-3,9-dimethyl-3,9-diazabicyclo[3.3.1]non-7-yl 1-ethylindazole-3-carboxamide] | 42 | 91 | – |
| CN1C[C@H]2C[C@@H](NC(=O)c3nn(Cc4ccccc4)c4ccccc34)C[C@@H](C1)N2C [Example 17, Endo-3,9-dimethyl-3,9-diazabicyclo[3.3.1]non-7-yl 1-benzylindazole-3-carboxamide] | 43 | 91 | – |
| CN1[C@@H]2COC[C@H]1C[C@@H](OC(=O)c1nn(C)c3ccccc13)C2 [Example 4, (Endo-9-methyl-3-oxa-9-azabicyclo[3.3.1]non-7-yl) 1-methylindazole-3-carboxylate] | 59 | 80 | – |
| CN1[C@@H]2CSC[C@H]1C[C@@H](OC(=O)c1nn(C)c3ccccc13)C2 [Example 3, (Endo-9-methyl-3-thia-9-azabicyclo[3.3.1]non-7-yl) 1-methylindazole-3-carboxylate] | 43 | 67 | – |
| CN1C[C@H]2C[C@@H](NC(=O)c3n[nH]c4ccccc34)C[C@@H](C1)N2C [Example 13] | – | 28 | 95 |
| CN(C)CCn1nc(C(=O)N[C@@H]2C[C@@H]3CN(C)C[C@H](C2)N3C)c2ccccc21 [Example 19, Endo-3,9-dimethyl-3,9-diazabicyclo[3.3.1]non-7-yl 1-[2-(dimethylamino)ethyl]indazole-3-carboxamide] | – | 10 | – |
| COc1cc(N)c(Cl)cc1C(=O)N[C@@H]1C[C@@H]2CN(C)C[C@H](C1)N2C [Example 22, Endo-3,9-dimethyl-3,9-diazabicyclo[3.3.1]non-7-yl 4-amino-5-chloro-2-methoxyphenylcarboxyamide] | – | 43 | 89 |
| CN1[C@@H]2COC[C@H]1C[C@@H](NC(=O)c1c[nH]c3ccccc13)C2 [Example 7, Endo-9-methyl-3-oxa-9-azabicyclo[3.3.1]non-7-yl 1H-indole-3-carboxamide] | – | 36 | 72 |
| COc1cc(N)c(Cl)cc1C(=O)O[C@H]1C[C@H]2CSC[C@@H](C1)N2C [Example 5, (Endo-9-methyl-3-thia-9-azabicyclo[3.3.1]non-7-yl) 4-amino-5-chloro-2-methoxy benzoate] | – | – | 58 |
